# Test results from patent US8188151B2, “Methods for treating diabetes” (Omega Bio-Pharma (I.P.3) Limited, priority 2003, dated 2012).
# Structures can show the parent of a compound that is named as a salt.
# Columns and labels:
# [1] = tested on: Goto-Kakizaki Wistar rats (GK rats); test: Oral glucose tolerance test and starving plasma glucose in GK rats (Example 1); format: in vivo, rat
# Protocol: Nineteen male Goto-Kakizaki Wistar rats (GK rats) with weights of 300±20 g were kept in steel cages, 3-4 rats per cage. The cages were changed every two days. Indoor temperature and relative humidity was kept at 23±3° C. and 65±1% respectively. Feed and drinking water was provided. GK rats were permitted a one-month period for adaptation.
# One day prior to experimentation, at 17:00, all of the feed was removed from all groups, but not the drinking water. On the second day, at 09:30, starving plasma glucose was measured for all GK rats. At 10:00, glucose tolerance test (2 g/kg BW) was performed and the plasma glucose level was measured as well for all GK rats. On the third day, the GK rats of the control group were orally administered a saline solution (2 ml/rat) and the GK rats in treatment I and II groups were orally administered a solution of Metformin (17 mg/kg body weight (BW), 2 ml once pre day at 09:30). This regimen was performed for the following several days. On the ninth day, starving plasma glucose was measured and oral glucose tolerance test was performed again for all GK rats in all groups.
# On the tenth day, the regimen for the GK rats in the treatment II group was changed to an oral administration of Metformin with cysteamine hydrochloride (Metformin 17 mg/kg BW, cysteamine hydrochloride 15 mg/kg BW) for the following 6 days, while the regimen for the control group and the treatment I group remained unchanged. This regimen was performed for six days.
# Six days following the change in regimen, starving plasma glucose was measured and glucose tolerance tests were performed, and blood and tissue samples were collected (liver, duodenum, pancreas gland, fat, and muscle) for all GK rats in all groups. Blood samples were stored at 4° C. for three hours and centrifuged for ten minutes at 3500 rpm. Then, the serum was collected and stored at −20° C. Tissue samples were placed in liquid nitrogen once collected and then stored in −80° C.
# The glucose tolerance tests that were performed included the steps of starving the GK rats overnight. Next day at 09:30, starving plasma glucose was measured. At 10:00, oral administration of a glucose solution (2 g/kg BW) was performed. Blood samples were collected via tail vein at 0, 0.5, 1, 2, and 3 hours and then performed with the plasma glucose testing equipment.
# GK diabetic rats = test: Glucose tolerance test in GK diabetic rats (Example 2); format: in vivo, rat; conditions: for glucose levels in glucose tolerance test (in words): GK diabetic rats; for Glucose tolerance test, plasma glucose, Fasting / Glucose tolerance test, plasma glucose, 0.5 hour / Glucose tolerance test, plasma glucose, 1 hour / Glucose tolerance test, plasma glucose, 2 hours / Glucose tolerance test, plasma glucose, 3 hours: Mean ± STD, DC 22.5 mg/kg BW, Metformin 34 mg/kg BW by gavage; for Glucose tolerance test, plasma glucose, Fasting: 20 days (combination in second 10 days); for Glucose tolerance test, plasma glucose, 0.5 hour / Glucose tolerance test, plasma glucose, 1 hour / Glucose tolerance test, plasma glucose, 2 hours / Glucose tolerance test, plasma glucose, 3 hours: after glucose 2 g/kg BW, 20 days
# Protocol: Food and water were provided ad libitum.
# The 36 GK rats were divided into 4 groups based on body weight (BW) and plasma glucose level. […] All animals were treated at 10:00 for 20 days.
# (§1) The four groups of animals were kept in the same room (temp 23±3° C., relative humidity 65±1%) in different cages with wire mesh bottoms to reduce coprophagia throughout the experiment. The rats were subjected to fasting overnight from 10:00 pm to 09:30 of the following day before being subjected to a glucose tolerance test. The rats were treated with glucose 2 g/kg BW in 2 ml tap water at 09:30 for the glucose tolerance test and the blood was collected from the tail vein at 0.5, 1, 2, and 3 hours after glucose injection. Plasma glucose concentrations were determined by Glucotrendr2 equipment (Roche Diagnostics, Basel, Switzerland). Plasma insulin concentrations were determined by radioimmunoassay (Insulin RIA Kit, NO:0410, purchased from Shanghai Radioimmunoassay Research Institution). […] The “p” value is the comparison with the control group.
# Insulin = test: Plasma insulin by radioimmunoassay in GK diabetic rats (Example 2); format: in vivo, rat; conditions: for Fasting Insulin: Mean ± STD, DC 22.5 mg/kg BW, Metformin 34 mg/kg BW
# Protocol: (§2) The 36 GK rats were divided into 4 groups based on body weight (BW) and plasma glucose level. […] All animals were treated at 10:00 for 20 days. […] Plasma glucose concentrations were determined by Glucotrendr2 equipment (Roche Diagnostics, Basel, Switzerland). Plasma insulin concentrations were determined by radioimmunoassay (Insulin RIA Kit, NO:0410, purchased from Shanghai Radioimmunoassay Research Institution). The effects on plasma glucose level are shown in Table 4, the effects on plasma insulin and adiponectin levels are shown in Table 5, and the effects on different tissues are shown in Table 6. The “p” value is the comparison with the control group.
# adiponectin = test: Adiponectin level in GK diabetic rats (Example 2); format: in vivo, rat; conditions: for Adiponectin: Mean ± STD, DC 22.5 mg/kg BW, Metformin 34 mg/kg BW
# Protocol: The 36 GK rats were divided into 4 groups based on body weight (BW) and plasma glucose level. Group 1 (control, n=10) was treated with saline by gavage (2 ml/rat) Group 2 (DC, n=6) was treated with cysteamine hydrochloride by gavage (22.5 mg/kg BW in 2 ml tap water); Group 3 (Metformin, Met, n=10) was treated with Metformin by gavage (34 mg/kg BW in 2 ml tap water); Group 4 (Met+DC, n=10) was treated with Metformin 34 mg/kg BW/day in 2 ml tap water for the first 10 days and then was treated with both cysteamine hydrochloride 22.5 mg/kg BW plus Metformin 34 mg/kg BW in 2 ml tap water for the second 10 days. All animals were treated at 10:00 for 20 days.
# as §1
# [2] = tested on: glucose transporter (glut4); test: Glucose transporter (glut4) expression in tissues of GK diabetic rats (Example 2); format: in vivo, rat; conditions: for expression of total glut4 in liver, muscles, adipocytes (in words): GK rats; for glut4 expression, adipocyte, fold changes compared with control level / glut4 expression, liver, fold changes compared with control level / glut4 expression, muscle, fold changes compared with control level: Mean ± STD, GK diabetic rats
# Protocol: as §2
# diabetic patients = test: Open-label randomized trial in patients with diabetes type II (Example 3); format: in vivo, human
# Protocol: The cysteamine alone (DC) group was treated with 540 mg/day of cysteamine hydrochloride.
# [3] = late-phase, Metformin 17 mg/kg BW, cysteamine hydrochloride 15 mg/kg BW oral for 6 days
# [4] = mid-phase, Treatment I group, 6 days oral Metformin 17 mg/kg BW, glucose 2 g/kg BW
# [5] = mid-phase, Treatment II group (Metformin 17 mg/kg BW only, before cysteamine hydrochloride was added)
# [6] = cysteamine hydrochloride 540 mg/day, two months
# [7] = pre-treatment minus post-treatment
smiles,measurement,setting,value
CN(C)C(=N)N=C(N)N [Metformin],duodenal plasma glucose levels and insulin resistance (in words),"[1]; GK rats, oral administration","to some extent, lowers"
same,"Glucose tolerance test, plasma glucose, 0.5 hour",[1]; [3],12.98
same,"Glucose tolerance test, plasma glucose, 1 hour",[1]; [3],13.42
same,"Glucose tolerance test, plasma glucose, 2 hours",[1]; [3],8.6
same,"Glucose tolerance test, plasma glucose, 3 hours",[1]; [3],6.67
same,"Glucose tolerance test, plasma glucose, Starving",[1]; [3],4.75
same,"Glucose tolerance test, plasma glucose, Starving","[1]; mid-phase, Treatment I group, 6 days oral Metformin 17 mg/kg BW",4.98
same,"Glucose tolerance test, plasma glucose, 0.5 hour",[1]; [4],15.68
same,"Glucose tolerance test, plasma glucose, 1 hour",[1]; [4],15.93
same,"Glucose tolerance test, plasma glucose, 2 hours",[1]; [4],10.55
same,"Glucose tolerance test, plasma glucose, 3 hours",[1]; [4],8.5
same,"Glucose tolerance test, plasma glucose, 0.5 hour",[1]; [5],15.65
same,"Glucose tolerance test, plasma glucose, 1 hour",[1]; [5],15.8
same,"Glucose tolerance test, plasma glucose, 2 hours",[1]; [5],10.55
same,"Glucose tolerance test, plasma glucose, 3 hours",[1]; [5],8.37
same,"Glucose tolerance test, plasma glucose, Starving",[1]; [5],5.03
same,glucose levels in glucose tolerance test (in words),GK diabetic rats,statistically significantly different
same,"Glucose tolerance test, plasma glucose, Fasting",GK diabetic rats,5.53 ± 0.53 mmol/L
same,"Glucose tolerance test, plasma glucose, 0.5 hour",GK diabetic rats,15.24 ± 1.34 mmol/L
same,"Glucose tolerance test, plasma glucose, 1 hour",GK diabetic rats,13.98 ± 0.95 mmol/L
same,"Glucose tolerance test, plasma glucose, 2 hours",GK diabetic rats,9.62 ± 0.83 mmol/L
same,"Glucose tolerance test, plasma glucose, 3 hours",GK diabetic rats,7.71 ± 1.37 mmol/L
same,insulin levels (in words),Insulin,"decreased, but not statistically significant"
same,Fasting Insulin,Insulin,18.75 ± 3.98 IU/L
same,adiponectin (in words),adiponectin,not
same,Adiponectin,adiponectin,3917 ± 416 ng/mL
same,"expression of total glut4 in liver, muscles, adipocytes (in words)",[2],"increased, but not significantly"
same,"glut4 expression, adipocyte, fold changes compared with control level",[2],2.14 ± 1.39 fold
same,"glut4 expression, liver, fold changes compared with control level",[2],2.43 ± 1.85 fold
same,"glut4 expression, muscle, fold changes compared with control level",[2],1.38 ± 0.67 fold
same,insulin-like growth factor 1 (IGF1) (in words),diabetic patients,decrease
NCCS [cysteamine hydrochloride],glucose levels in glucose tolerance test (in words),GK diabetic rats,did not affect
same,"Glucose tolerance test, plasma glucose, Fasting",GK diabetic rats,5.80 ± 0.36 mmol/L
same,"Glucose tolerance test, plasma glucose, 0.5 hour",GK diabetic rats,16.68 ± 1.1 mmol/L
same,"Glucose tolerance test, plasma glucose, 1 hour",GK diabetic rats,15.68 ± 0.8 mmol/L
same,"Glucose tolerance test, plasma glucose, 2 hours",GK diabetic rats,11.00 ± 0.8 mmol/L
same,"Glucose tolerance test, plasma glucose, 3 hours",GK diabetic rats,8.33 ± 0.64 mmol/L
same,insulin levels (in words),Insulin,did not affect
same,Fasting Insulin,Insulin,22.46 ± 2.65 IU/L
same,adiponectin (in words),adiponectin,significantly increased
same,Adiponectin,adiponectin,4318 ± 590 ng/mL
same,"expression of total glut4 in liver, muscles, adipocytes (in words)",[2],significantly increase
same,"glut4 expression, adipocyte, fold changes compared with control level",[2],2.7 ± 1.16 fold
same,"glut4 expression, liver, fold changes compared with control level",[2],3.77 ± 3.15 fold
same,"glut4 expression, muscle, fold changes compared with control level",[2],1.5 ± 0.74 fold
same,C peptide (CP) (in words),diabetic patients,decreases significantly
same,HOMA (Homeostasis Model Assessment) (in words),diabetic patients,decreases significantly
same,blood uric acid (UA) levels (in words),diabetic patients,decreases significantly
same,fasting insulin (FINS) (in words),diabetic patients,decreases significantly
same,insulin-like growth factor 1 (IGF1) (in words),diabetic patients,decreases significantly
same,microalbuminuria (in words),diabetic patients,obvious but not statistically significantly
same,"24 h Microalbuminuria, Post-treatment",diabetic patients; [6],30.97 ± 25.12
same,"FBS (fasting blood sugar), Post-treatment",diabetic patients; [6],8.21 ± 2.43
same,"FCP (C peptide), Post-treatment",diabetic patients; [6],557 ± 119
same,"FINS (fasting insulin), Post-treatment",diabetic patients; [6],13.25 ± 6.36
same,"HOMA (Homeostasis Model Assessment), Post-treatment",diabetic patients; [6],5.43 ± 3.19
same,"IGF, Post-treatment",diabetic patients; [6],44.37 ± 7.28
same,"UA (blood uric acid), Post-treatment",diabetic patients; [6],359 ± 60.16
same,"24 h Microalbuminuria, Paired Difference",diabetic patients; [7],11.77 ± 40.73
same,"FBS, Paired Difference",diabetic patients; [7],−0.69 ± 2.11
same,"FCP, Paired Difference",diabetic patients; [7],182 ± 164
same,"FINS, Paired Difference",diabetic patients; [7],22.14 ± 19.39
same,"HOMA, Paired Difference",diabetic patients; [7],6.51 ± 4.94
same,"IGF, Paired Difference",diabetic patients; [7],4.99 ± 5.12
same,"UA, Paired Difference",diabetic patients; [7],29.5 ± 37.87
